Test results as given in ChEMBL document CHEMBL5726093, “Piperidine derivatives” (2019).

Target: Cathepsin S (Homo sapiens, UniProt P25774)
Experiment: Cathepsin Enzyme Inhibition Assay: Enzyme activity is measured by observing the increase in fluorescence intensity caused by cleavage of a peptide substrate containing a fluorophore whose emission is quenched in the intact peptide.Assay buffer: 100 mM potassium phosphate pH 6.5, EDTA-Na 5 mM, Triton X-100 0.001%, DTT 5 mM.Enzymes (all at 1 nM): human and mouse Cathepsin S, Cat K, Cat B, Cat L.Substrate (20 Z-Val-Val-Arg-AMC, except for Cat K which uses Z-Leu-Arg-AMC (both from Bachem).Z=Benzyloxycarbonyl.AMC=7-Amino-4-Methyl-Coumarin.DTT=dithiothreitol.Final volume: 100 μL.Excitation 360 nm, Emission 465 nm.Enzyme is added to the substance dilutions in 96-well microtitre plates and the reaction is started with substrate. Fluorescence emission is measured over 20 minutes, during which time a linear increase is observed in the absence of inhibitor.

Cathepsin S, sequence (P25774 whole entry): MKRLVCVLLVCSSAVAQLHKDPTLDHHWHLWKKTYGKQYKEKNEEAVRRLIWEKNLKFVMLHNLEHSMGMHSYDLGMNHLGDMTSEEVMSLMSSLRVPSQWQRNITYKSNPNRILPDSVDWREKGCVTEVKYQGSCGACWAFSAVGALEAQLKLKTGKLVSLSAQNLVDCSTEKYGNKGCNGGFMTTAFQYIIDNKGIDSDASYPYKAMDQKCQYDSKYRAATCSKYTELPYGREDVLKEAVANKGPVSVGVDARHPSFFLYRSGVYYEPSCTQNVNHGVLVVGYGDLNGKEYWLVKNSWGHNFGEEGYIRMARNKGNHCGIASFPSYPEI

Cn1c(=O)n(C2CCN(Cc3nc(-c4ccc(C(F)(F)F)cc4)[nH]c3-c3ccccc3)CC2)c2ccccc21
IC50: 985 nM
